Results as given in patent publication US10344019B2 (priority 2010, dated 2019).

Tests used:
Assay type in all cases: cell-based
[1] = test system: HCV 2a Rluc cells (NS5A chimeric genotype 2a JFH-1 replicon with genotype 2a J6 strain NS5A gene, M31 present); experiment: HCV replicon reporter assay, genotype 2a J6 (M31 present); details: Hepatitis C virus, read-out: 2a J6
How it was run: (§1)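 Replicon cells stably carrying the listed RLuc-encoding dicistronic replicons were seeded and treated with DMSO serial dilutions of compound (10 mM stocks) diluted into culture medium. After 72 h, cells were lysed and Renilla luciferase activity measured. EC50 was derived by non-linear regression.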

[2] = test system: HCV 2a JFH-1 Rluc cells (dicistronic genotype 2a JFH-1 replicon, RLuc reporter); experiment: microbe, parasite or virus in culture; details: Hepatitis C virus, genotype 2a JFH-1 RLuc replicon; read-out: 2a JFH
How it was run: as §1

[3] = test system: HCV 3a RLuc cells (NS5A chimeric genotype 1b Con1 replicon with consensus genotype 3a NS5A gene); experiment: microbe, parasite or virus in culture; details: Hepatitis C virus, read-out: 3a, genotype 3a NS5A chimeric replicon
How it was run: as §1

[4] = test system: HCV 1b RLuc cells (dicistronic genotype 1b Con1 replicon, RLuc reporter); experiment: microbe, parasite or virus in culture; details: Hepatitis C virus, read-out: 1b (nM)
How it was run: as §1

[5] = test system: HCV 2b Rluc cells (NS5A chimeric genotype 2a JFH-1 replicon with genotype 2b MD2b-1 NS5A gene, M31 present); experiment: microbe, parasite or virus in culture; details: Hepatitis C virus, read-out: 2b
How it was run: as §1

[6] = test system: HCV 4a Rluc cells (NS5A chimeric genotype 1b Con1 replicon with genotype 4a NS5A gene); experiment: microbe, parasite or virus in culture; details: Hepatitis C virus, read-out: 4a
How it was run: as §1

[7] = test system: HCV 1a RLuc cells (dicistronic genotype 1a H77 replicon, RLuc reporter); experiment: microbe, parasite or virus in culture; details: Hepatitis C virus, genotype 1a H77 RLuc replicon; read-out: 1a
How it was run: as §1

SMILES	EC50 [1] [pM]	EC50 [2] [pM]	EC50 [3] [pM]	EC50 [4] [nM]	EC50 [5] [pM]	EC50 [6] [pM]	EC50 [7] [pM]
O=C(N[C@@H](C(=O)N1CCC[C@H]1c1ncc(-c2cc3c4c(c2)OCc2cc(-c5cnc([C@@H]6CCCN6C(=O)[C@H](NC(=O)C6CCCC6)c6ccccc6)[nH]5)cc(c2-4)OC3)[nH]1)c1ccccc1)C1CCCC1 [Example 489]	1 to 999	1 to 999	1 to 990	0.048	1 to 999	1 to 990	1 to 999
O=C(N[C@@H](C(=O)N1CCC[C@H]1c1ncc(-c2cc3c4c(c2)OCc2cc(-c5cnc([C@@H]6CCCN6C(=O)[C@H](NC(=O)C6CCOCC6)c6ccccc6)[nH]5)cc(c2-4)OC3)[nH]1)c1ccccc1)C1CCOCC1 [Example 490]	1 to 999	1 to 999	1 to 990	0.989	1 to 999	1 to 990	1000 to 44000
O=C(N[C@@H](C(=O)N1CCC[C@H]1c1ncc(-c2cc3c4c(c2)OCc2cc(-c5cnc([C@@H]6CCCN6C(=O)[C@H](NC(=O)c6ccncn6)c6ccccc6)[nH]5)cc(c2-4)OC3)[nH]1)c1ccccc1)c1ccncn1 [Example 491]	1 to 999	1 to 999	1 to 990	0.066	1 to 999	1 to 990	1 to 999
O=C(N[C@@H](C(=O)N1CCC[C@H]1c1ncc(-c2cc3c4c(c2)OCc2cc(-c5cnc([C@@H]6CCCN6C(=O)[C@H](NC(=O)c6cncnc6)c6ccccc6)[nH]5)cc(c2-4)OC3)[nH]1)c1ccccc1)c1cncnc1 [Example 492]	> 44000	1 to 999	1 to 990	0.898	1000 to 44000	1 to 990	1000 to 44000
COC[C@@H]1C[C@@H](c2nc3c([nH]2)-c2cc4c(cc2CC3)-c2ccc(-c3cnc([C@@H]5CCCN5C(=O)[C@@H](NC(=O)OC)C(C)C)[nH]3)cc2CO4)N(C(=O)[C@@H](NC(=O)OC)C(C)C)C1 [Example 493]	> 44000	1 to 999	1 to 990	0.03	1 to 999	1 to 990	1 to 999
COC(=O)N[C@H](C(=O)N1CCC[C@H]1c1nc2c([nH]1)-c1cc3c(cc1CC2)-c1ccc(-c2cnc([C@@H]4CCCN4C(=O)[C@H](NC(=O)C4CC4)c4ccccc4)[nH]2)cc1CO3)C(C)C [Example 494]	1 to 999	1 to 999	1 to 990	0.021	1 to 999	1 to 990	1 to 999
COC(=O)N[C@@H](C(=O)N1[C@@H]2C[C@@H]2C[C@H]1c1ncc(-c2cc3c4c(c2)OCc2cc(-c5cnc([C@@H]6C[C@H]7C[C@H]7N6C(=O)[C@H](NC(=O)OC)c6ccccc6)[nH]5)cc(c2-4)OC3)[nH]1)c1ccccc1 [Example 496]	1 to 999	1 to 999	1 to 990	0.011	1 to 999	1 to 990	1 to 999
COC[C@H]1C[C@@H](c2nc3ccc4cc(-c5ccc6c(ccc7nc([C@@H]8C[C@H]9C[C@H]9N8C(=O)[C@@H](NC(=O)OC)C(C)C)[nH]c76)c5)ccc4c3[nH]2)N(C(=O)[C@H](NC(=O)OC(C)(C)C)c2ccccc2)C1 [Example 497]	1 to 999	1 to 999	1 to 990	0.008	1 to 999	1 to 990	1 to 999
CCC(=O)N[C@@H](C(=O)N1CCC[C@H]1c1ncc(-c2ccc3c(c2)COc2cc4c(ccc5nc([C@@H]6CCCN6C(=O)[C@@H](NC(=O)OC)C(C)C)[nH]c54)cc2-3)[nH]1)c1ccccc1 [Example 499]	1 to 999	1 to 999	1 to 990	0.032	1 to 999	1 to 990	1 to 999
COC(=O)N[C@H](C(=O)N1[C@@H]2C[C@@H]2C[C@H]1c1ncc(-c2cc3c4c(c2)OCc2cc(-c5cnc([C@@H]6C[C@H]7C[C@H]7N6C(=O)[C@H](NC(=O)OC)c6ccccc6)[nH]5)cc(c2-4)OC3)[nH]1)C(C)C [Example 501]	> 44000	1 to 999	1 to 990	0.021	1000 to 44000	1 to 990	1 to 999
COC(=O)N[C@H](C(=O)N1CCC[C@H]1c1ncc(-c2ccc3c(c2)COc2cc4c(cc2-3)CCc2nc([C@@H]3CCCN3C(=O)[C@H](NC(=O)C3CC3)c3ccccc3)[nH]c2-4)[nH]1)C(C)C [Example 503]	1 to 999	1 to 999	1 to 990	0.041	1 to 999	1 to 990	1 to 999
COC(=O)N[C@@H](C(=O)N1C[C@@H](C)C[C@H]1c1ncc(-c2cc3c4c(c2)OCc2cc(-c5cnc([C@@H]6C[C@H](C)CN6C(=O)[C@H](NC(=O)OC)c6ccccc6)[nH]5)cc(c2-4)OC3)[nH]1)c1ccccc1 [Example 505]	1 to 999	1 to 999	1 to 990	0.019	1 to 999	1 to 990	1 to 999
COC[C@H]1C[C@@H](c2nc3ccc4cc(-c5ccc6c(ccc7nc([C@@H]8CCCN8C(=O)[C@@H](NC(=O)OC)C(C)C)[nH]c76)c5)ccc4c3[nH]2)N(C(=O)[C@H](NC(=O)C2CC2)c2ccccc2)C1 [Example 508]	1 to 999	1 to 999	1 to 990	0.026	1 to 999	1 to 990	1 to 999
CC[C@H](C)[C@H](NC(=O)OC)C(=O)N1CCC[C@H]1c1nc2ccc3cc(-c4ccc5c(ccc6nc([C@@H]7C[C@H](COC)CN7C(=O)[C@H](NC(=O)OC)c7ccccc7)[nH]c65)c4)ccc3c2[nH]1 [Example 509]	1 to 999	1 to 999	1 to 990	0.028	1 to 999	1 to 990	1 to 999
COC[C@H]1C[C@@H](c2nc3ccc4cc5c(cc4c3[nH]2)OCc2cc(-c3cnc([C@@H]4CCCN4C(=O)[C@H](NC(=O)C4CC4)c4ccccc4)[nH]3)ccc2-5)N(C(=O)[C@@H](NC(=O)OC)C(C)C)C1 [Example 510]	1 to 999	1 to 999	1 to 990	0.05	1 to 999	1 to 990	1 to 999
CC[C@H](C)[C@H](NC(=O)OC)C(=O)N1CCC[C@H]1c1nc2ccc3cc(-c4ccc5c(ccc6nc([C@@H]7C[C@H](COC)CN7C(=O)[C@H](NC(=O)C7CC7)c7ccccc7)[nH]c65)c4)ccc3c2[nH]1 [Example 511]	1 to 999	1 to 999	1 to 990	0.019	1 to 999	1 to 990	1 to 999
COC[C@H]1C[C@@H](c2nc3ccc4cc(-c5ccc6c(ccc7nc([C@@H]8CCCN8C(=O)[C@H](NC(=O)C8CC8)c8ccccc8)[nH]c76)c5)ccc4c3[nH]2)N(C(=O)[C@@H](NC(=O)OC)C(C)C)C1 [Example 512]	1 to 999	1 to 999	1 to 990	0.035	1 to 999	1 to 990	1 to 999
COC[C@H]1C[C@@H](c2ncc(-c3cc4c5c(c3)OCc3cc(-c6cnc([C@@H]7C[C@H](COC)CN7C(=O)[C@@H](NC(=O)OC)C(C)C)[nH]6)cc(c3-5)OC4)[nH]2)N(C(=O)[C@@H](NC(=O)OC)C(C)C)C1 [Example 513]	1000 to 44000	1 to 999	1 to 990	0.068	1000 to 44000	1 to 990	1 to 999
COC(=O)N[C@H](C(=O)N1CCC[C@H]1c1nc2ccc3cc(-c4ccc5c(ccc6nc([C@@H]7C[C@H](COC(F)F)CN7C(=O)[C@@H](NC(=O)OC)C(C)C)[nH]c65)c4)ccc3c2[nH]1)C(C)C [Example 514]	1 to 999	1 to 999	1 to 990	0.01	1 to 999	1 to 990	1 to 999
COC(=O)N[C@H](C(=O)N1CCC[C@H]1c1nc2ccc3cc(-c4ccc5c(ccc6nc([C@@H]7C[C@H](SC)CN7C(=O)[C@@H](NC(=O)OC)C(C)C)[nH]c65)c4)ccc3c2[nH]1)C(C)C [Example 515]	1 to 999	1 to 999	1 to 990	0.047	1000 to 44000	1 to 990	1 to 999
COC(=O)N[C@H](C(=O)N1CCC[C@H]1c1ncc(-c2ccc3c(c2)COc2cc4c(ccc5nc([C@@H]6C[C@H]7C[C@H]7N6C(=O)[C@@H](NC(=O)OC)C(C)C)[nH]c54)cc2-3)[nH]1)C(C)C [Example 518]	1000 to 44000	1 to 999	1 to 990	0.01	1 to 999	1 to 990	1 to 999
